Where two headings read alike, the source gives them in different places.
What was measured:
[1] = target: T1, KDM4C (JMJD2C) (Homo sapiens, UniProt Q9H3R0); assay: Histone lysine demethylase AlphaLISA assay, KDM4C; type: biochemical
T1 sequence (Q9H3R0 1-349): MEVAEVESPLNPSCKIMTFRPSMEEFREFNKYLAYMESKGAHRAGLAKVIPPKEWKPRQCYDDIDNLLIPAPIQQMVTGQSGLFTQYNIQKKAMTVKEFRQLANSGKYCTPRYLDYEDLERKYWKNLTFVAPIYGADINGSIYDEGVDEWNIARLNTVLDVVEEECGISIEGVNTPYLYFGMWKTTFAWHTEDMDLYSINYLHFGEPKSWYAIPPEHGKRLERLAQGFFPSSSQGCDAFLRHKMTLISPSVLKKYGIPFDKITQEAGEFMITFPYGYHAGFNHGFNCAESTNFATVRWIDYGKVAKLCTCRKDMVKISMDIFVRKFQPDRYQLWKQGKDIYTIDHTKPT
Description: (§1) Assays are performed analogously to the protocol described by PerkinElmer (Roy et al. PerkinElmer Technical Note: AlphaLISA #12, April 2011)
(§2) Enzymes are dissolved in enzyme buffer and incubated for 10 min before being added to 3% DMSO solutions of compounds in enzyme buffer. Incubated for another 10 minutes, before substrate solution is added and the reaction mixture is incubated at room temperature. 10 μL acceptor beads, suspended in Epigenetic Buffer (Perkin Elmer AL008) from stock, are added and the suspension is incubated in the dark at room temperature, before a suspension of streptavidin donor beads (Perkin Elmer 6760002) in Epigenetic Buffer is added. After incubation at room temperature in the dark the plates are read.
BK9M3: Biotin-ARTKQTAR(KMe3)STGGKAPRKQ-NH2 (Caslo, Denmark) […]
(§3) Substrate Solution: Substrate, 25 μM L-Asc, and 10 μM α-KG in Buffer A.

[2] = target: T2, KDM5B (PLU-1) (Homo sapiens, UniProt Q9UGL1); assay: Histone lysine demethylase AlphaLISA assay, KDM5B; type: biochemical
T2 sequence (Q9UGL1 1-809): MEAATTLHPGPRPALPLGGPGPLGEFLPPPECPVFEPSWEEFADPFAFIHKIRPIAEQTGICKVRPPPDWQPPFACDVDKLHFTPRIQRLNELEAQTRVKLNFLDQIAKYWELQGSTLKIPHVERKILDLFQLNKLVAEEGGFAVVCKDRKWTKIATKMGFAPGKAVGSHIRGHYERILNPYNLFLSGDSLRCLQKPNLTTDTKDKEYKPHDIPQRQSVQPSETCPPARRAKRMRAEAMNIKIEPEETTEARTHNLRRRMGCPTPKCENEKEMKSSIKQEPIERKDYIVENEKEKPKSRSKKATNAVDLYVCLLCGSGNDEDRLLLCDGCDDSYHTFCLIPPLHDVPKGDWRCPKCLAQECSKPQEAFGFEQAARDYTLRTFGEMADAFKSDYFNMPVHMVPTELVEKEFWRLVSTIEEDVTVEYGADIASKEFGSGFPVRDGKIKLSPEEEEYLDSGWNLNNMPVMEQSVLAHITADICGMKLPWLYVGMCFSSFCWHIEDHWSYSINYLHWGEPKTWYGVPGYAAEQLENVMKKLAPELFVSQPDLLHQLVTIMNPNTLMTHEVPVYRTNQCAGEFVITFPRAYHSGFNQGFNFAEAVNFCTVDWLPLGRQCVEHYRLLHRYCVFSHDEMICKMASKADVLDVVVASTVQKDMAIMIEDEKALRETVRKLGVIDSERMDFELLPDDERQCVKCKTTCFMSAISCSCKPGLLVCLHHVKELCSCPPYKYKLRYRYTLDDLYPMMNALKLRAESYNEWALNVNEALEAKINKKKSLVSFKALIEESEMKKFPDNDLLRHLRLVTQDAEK
Description: as §1
as §2, with “read. […]” for “read.”
H3K4M3B: H-ART(Kme3)QTARKSTGGKAPRKQLA-NH-Biotin (Caslo, Denmark) […]
as §3

[3] = target: KDM6A (UTX) (Homo sapiens, UniProt O15550); assay: Histone lysine demethylase AlphaLISA assay, KDM6A; type: biochemical
KDM6A (UTX), sequence (O15550 919-1401): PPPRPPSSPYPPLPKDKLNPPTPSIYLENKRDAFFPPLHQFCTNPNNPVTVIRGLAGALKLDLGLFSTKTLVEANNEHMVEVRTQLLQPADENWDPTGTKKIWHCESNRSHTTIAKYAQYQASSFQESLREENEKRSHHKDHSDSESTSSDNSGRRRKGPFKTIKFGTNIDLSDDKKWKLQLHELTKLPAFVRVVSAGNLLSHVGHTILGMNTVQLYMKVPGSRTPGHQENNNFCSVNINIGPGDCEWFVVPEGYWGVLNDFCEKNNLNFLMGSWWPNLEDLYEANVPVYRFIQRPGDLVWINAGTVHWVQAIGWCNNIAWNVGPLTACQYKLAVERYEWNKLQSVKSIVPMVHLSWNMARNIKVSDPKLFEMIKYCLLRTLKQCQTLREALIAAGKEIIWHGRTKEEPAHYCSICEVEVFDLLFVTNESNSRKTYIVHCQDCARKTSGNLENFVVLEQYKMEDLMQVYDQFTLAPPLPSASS
Description: as §1
as §2, with “read. […]” for “read.”
BK27M3: Biotin-ATKAAR(Kme3)SAPATGGVKKPHRY-NH2? (Caslo, Denmark) […]
as §3

[4] = test system: MCF7 cells; assay: Cell proliferation assay MCF7; type: cell-based; conditions: MCF7 human breast cancer cells; 120 hours; ATPlite 1 Step
Description: MCF7 cells were seeded in multi well plates at a density optimized to give approximately 90% confluent cells at the time of harvest. Cells were incubated for 24 hours before addition of compound. Compounds were diluted in complete medium and added to the plates in duplicates. The final concentration of DMSO was maximum 0.5%. Complete medium used was DMEM with GlutaMAX containing 10% FBS and pen/strep.
120 hours after addition of compounds, the plates were harvested and analyzed by ATPlite 1 Step (Perkin Elmer, cat no 6016739) according to the manufactures recommendation.

[5] = target: T3, KDM2B (FBXL10) (Homo sapiens, UniProt Q8NHM5); assay: Histone lysine demethylase AlphaLISA assay, KDM2B; type: biochemical; conditions: read-out: KDM2B HDME Inhibition IC50
T3 sequence (Q8NHM5 1-650): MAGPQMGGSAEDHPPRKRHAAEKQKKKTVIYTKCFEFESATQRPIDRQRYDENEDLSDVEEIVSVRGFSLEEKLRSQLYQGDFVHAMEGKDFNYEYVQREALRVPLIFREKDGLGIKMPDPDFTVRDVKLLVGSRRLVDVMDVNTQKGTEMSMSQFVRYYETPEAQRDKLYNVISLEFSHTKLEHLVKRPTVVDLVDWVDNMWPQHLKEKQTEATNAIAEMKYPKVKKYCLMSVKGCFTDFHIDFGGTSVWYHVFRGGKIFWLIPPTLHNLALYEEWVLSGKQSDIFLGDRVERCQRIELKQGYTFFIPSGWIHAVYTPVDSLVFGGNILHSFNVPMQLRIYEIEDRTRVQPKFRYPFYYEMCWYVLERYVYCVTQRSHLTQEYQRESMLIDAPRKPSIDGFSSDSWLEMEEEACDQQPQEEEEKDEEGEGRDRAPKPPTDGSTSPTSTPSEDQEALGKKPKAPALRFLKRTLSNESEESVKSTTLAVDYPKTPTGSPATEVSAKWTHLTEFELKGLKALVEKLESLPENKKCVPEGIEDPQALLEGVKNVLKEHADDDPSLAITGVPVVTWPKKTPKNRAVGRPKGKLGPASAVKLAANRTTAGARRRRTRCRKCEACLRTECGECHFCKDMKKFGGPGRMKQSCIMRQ
Description: as §1
as §2, with “read. […]” for “read.”
BH3K36M2: RKAAPATGGVK(Me2)KPHRYRPGTVK-(BIOTIN)? (Anaspec)
as §3

[6] = read-out: KDM4C HDME Inhibition IC50
[7] = read-out: KDM5B HDME Inhibition IC50
[8] = read-out: KDM6A HDME Inhibition IC50

`CCOC(=O)c1ccccc1OC(=O)NCc1ccnc(CNCC(=O)N(CC)CCN(C)C)c1` [Compound 29, ethyl 2-({[(2-{[({[2-(dimethylamino)-ethyl](ethyl)-carbamoyl}methyl)-amino]methyl}pyridin-4-yl)methyl]-carbamoyl}-oxy)benzoate] was tested, and the IC50 [1] was over 2.5 µM, the IC50 [2] was 0.25 to 2.5 µM and the IC50 [3] was over 2.5 µM. The EC50 [4] was 0.25 to 2.5 µM.

Work on `CCN(CCN(C)C)C(=O)CNCc1cc(CNC(=O)C(F)(F)C(F)(F)C(F)(F)F)ccn1` [Compound 31, N-[(2-{[({[2-(dimethylamino)ethyl] (ethyl)carbamoyl}-methyl)amino]methyl}-pyridin-4-yl)-methyl]-2,2,3,3,4,4,4-heptafluorobutanamide] yielded an IC50 [5] of over 2.5 µM, an IC50 [1, 6] of over 2.5 µM and an IC50 [2, 7] of 0.25 to 2.5 µM. It also gave an IC50 [3, 8] of over 2.5 µM and an EC50 [4] of 0.25 to 2.5 µM.

With `CCN(CC)C(=O)CNCc1cc(/C=N/CCc2ccc(C)cc2)ccn1` [Compound 69, N,N-diethyl-2-[({4-[{[2-(4-methylphenyl)-ethyl]imino}-methyl]pyridin-2-yl}methyl)amino]-acetamide] the IC50 [1, 6] was 0.25 to 2.5 µM, the IC50 [2, 7] was under 0.25 µM and the IC50 [3, 8] was over 2.5 µM. It also gave an EC50 [4] of over 2.5 µM.

With `CCN(CC)CCCCNCc1cc(/C=N/CCCO)ccn1` [Compound 71, 3-[{[2-({[4-(diethylamino)-butyl]amino}methyl)pyridin-4-yl]methylidene}amino]-propan-1-ol] the IC50 [1, 6] was over 2.5 µM, the IC50 [2, 7] was under 0.25 µM and the IC50 [3, 8] was over 2.5 µM. For the same molecule, the EC50 [4] was under 0.25 µM.

In the case of `CCN(CC)CCCCNCc1cc(C2NCC3(CCCC3)CO2)ccn1` (stereo not drawn) [Compound 72, [4-(diethylamino)-butyl][(4-{7-oxa-9-azaspiro[4.5]decan-8-yl}pyridin-2-yl)methyl]amine], the IC50 [5] is reported as over 2.5 µM, the IC50 [1, 6] is reported as over 2.5 µM and the IC50 [2, 7] is reported as 0.25 to 2.5 µM. It also gave an IC50 [3, 8] of over 2.5 µM and an EC50 [4] of under 0.25 µM.

Work on `CCN(CC)CCCCNCc1cc(/C=N/C(C)CO)ccn1` (stereo not drawn) [Compound 73, 2-[{[2-({[4-(diethylamino)-butyl]amino}-methyl)pyridin-4-yl]methylidene}-amino]propan-1-ol] yielded an IC50 [1, 6] of over 2.5 µM, an IC50 [2, 7] of under 0.25 µM and an EC50 [4] of under 0.25 µM.

Work on `CCN(CC)CCCCNCc1cc(/C=N/C(CO)c2ccccc2)ccn1` (stereo not drawn) [Compound 75, 2-[{[2-({[4-(diethylamino)-butyl]amino}-methyl)pyridin-4-yl]methylidene}-amino]-2-phenylethan-1-ol] yielded an IC50 [1, 6] of over 2.5 µM, an IC50 [2, 7] of under 0.25 µM and an EC50 [4] of under 0.25 µM.

With `CCN(CC)CCCCNCc1cc(/C=N/CC(C)(C)CO)ccn1` [Compound 76, 3-[{[2-({[4-(diethylamino)-butyl]amino}-methyl)pyridin-4-yl]methylidene}-amino]-2,2-dimethylpropan-1-ol] the IC50 [5] was over 2.5 µM, the IC50 [1, 6] was over 2.5 µM and the IC50 [2, 7] was 0.25 to 2.5 µM. It also gave an EC50 [4] of under 0.25 µM.

For `CCN(CCN(C)C)C(=O)CNCc1cc(/C=N/CCCO)ccn1` [Compound 78, N-[2-(dimethylamino)-ethyl]-N-ethyl-2-[({4-[[(3-hydroxypropyl)imino]-methyl]pyridin-2-yl}-methyl)amino]-acetamide], the IC50 [5] was over 2.5 µM, the IC50 [1, 6] was 0.25 to 2.5 µM and the IC50 [2, 7] was under 0.25 µM. The EC50 [4] was under 0.25 µM.

Work on `CCN(CC)CCCCNCc1cc(/C=N/CC(CO)Cc2ccccc2)ccn1` (stereo not drawn) [Compound 80, 2-{[{[2-({[4-(diethylamino)-butyl]amino}methyl)pyridin-4-yl]methylidene}-amino]methyl}-3-phenylpropan-1-ol] yielded an IC50 [5] of 0.25 to 2.5 µM, an IC50 [1, 6] of under 0.25 µM and an IC50 [2, 7] of under 0.25 µM. The IC50 [3, 8] was over 2.5 µM and the EC50 [4] was 0.25 to 2.5 µM.

Molecule `CCN(CC)CCCCNCc1cc(/C=N/CC(O)Cc2ccccc2)ccn1` (stereo not drawn) [Compound 84, 1-[{[2-({[4-(diethylamino)-butyl]amino}methyl)pyridin-4-yl]methylidene}amino]-3-phenylpropan-2-ol] has an IC50 [5] of over 2.5 µM, an IC50 [1, 6] of over 2.5 µM and an IC50 [2, 7] of 0.25 to 2.5 µM. For the same molecule, the IC50 [3, 8] was over 2.5 µM and the EC50 [4] was under 0.25 µM.

`CCN(CCN(C)C)C(=O)CNCc1cc(/C=N/CC(O)CN(C)C)ccn1` (stereo not drawn) [Compound 86, 2-[({4-[{[3-(dimethylamino)-2-hydroxypropyl]imino}-methyl]pyridin-2-yl}methyl)amino]-N-[2-(dimethylamino)-ethyl]-N-ethylacetamide] gave an IC50 [5] of over 2.5 µM, an IC50 [2, 7] of under 0.25 µM and an IC50 [3, 8] of over 2.5 µM. For the same molecule, the EC50 [4] was under 0.25 µM.

Work on `CCN(CCN(C)C)C(=O)CNCc1cc(C2NCC(C)(C)CO2)ccn1` (stereo not drawn) [Compound 87, 2-({[4-(5,5-dimethyl-1,3-oxazinan-2-yl)pyridin-2-yl]methyl}amino)-N-[2-(dimethylamino)-ethyl]-N-ethylacetamide] yielded an IC50 [5] of over 2.5 µM, an IC50 [1, 6] of 0.25 to 2.5 µM and an IC50 [2, 7] of under 0.25 µM. The EC50 [4] was under 0.25 µM.

Molecule `CCN(CCN(C)C)C(=O)CNCc1cc(/C=N/CC(CO)Cc2ccccc2)ccn1` (stereo not drawn) [Compound 89, 2-[({4-[[(2-benzyl-3-hydroxypropyl)imino]methyl]pyridin-2-yl}methyl)amino]-N-[2-(dimethylamino)ethyl]-N-ethylacetamide] has an IC50 [5] of over 2.5 µM, an IC50 [1, 6] of 0.25 to 2.5 µM and an IC50 [2, 7] of under 0.25 µM. For the same molecule, the IC50 [3, 8] was over 2.5 µM and the EC50 [4] was under 0.25 µM.

`CN(C)C1CCC(CNCc2cc(C=O)ccn2)C1` (stereo not drawn) [Compound 117, 2-[({[3-(dimethylamino)-cyclopenyl]methyl}-amino)methyl] pyridine-4-carbaldehyde] gave an IC50 [1, 6] of 0.25 to 2.5 µM, an IC50 [2, 7] of under 0.25 µM and an IC50 [3, 8] of over 2.5 µM. It also gave an EC50 [4] of 0.25 to 2.5 µM.

— patent publication US9650339B2, “Inhibitors of histone demethylases” (Gilead Sciences, Inc., priority 2013, dated 2017)
